Measured values: patent US8883782B2, “Spiro-tetracyclic ring compounds as beta-secretase modulators and methods of use” (Amgen Inc., priority 2010, dated 2014)
Read-outs that look alike come from different tables or passages of the source.

What was measured:
[1] = molecular target: Beta Secretase enzyme (BACE) (Homo sapiens, UniProt P56817); experiment: In vitro enzymatic BACE FRET (fluorescence resonance energy transfer) assay; type: biochemical
In short: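 Acetate buffer (0.05 M, pH 4.2), 10% DMSO final, 100 uM nonionic detergent genapol. Substrate addition (50 nM FRET peptide) initiates; one-hour incubation; Tris raises pH to neutrality before fluorescence measurement.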

[2] = test system: Aβ40 in conditioned medium of cells stably expressing Amyloid Precursor Protein (APP); experiment: In vitro BACE cell-based assay (Aβ40 in conditioned medium, sandwich ELISA); conditions: Homo sapiens
In short: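 Step two: 10-point compound titration added, starting 100 μM or 10 μM, 0.1% DMSO. Step three: medium Aβ40 measured by ELISA, capture 3 h and detection 2 h at 4° C, TRF read.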

[3] = average IC50, enzyme assay, read-out: BACE 1 FRET assay
[4] = HEK293, average IC50, read-out: HEK cell assay

Beta Secretase enzyme (BACE), sequence (P56817 46-501, species assumed): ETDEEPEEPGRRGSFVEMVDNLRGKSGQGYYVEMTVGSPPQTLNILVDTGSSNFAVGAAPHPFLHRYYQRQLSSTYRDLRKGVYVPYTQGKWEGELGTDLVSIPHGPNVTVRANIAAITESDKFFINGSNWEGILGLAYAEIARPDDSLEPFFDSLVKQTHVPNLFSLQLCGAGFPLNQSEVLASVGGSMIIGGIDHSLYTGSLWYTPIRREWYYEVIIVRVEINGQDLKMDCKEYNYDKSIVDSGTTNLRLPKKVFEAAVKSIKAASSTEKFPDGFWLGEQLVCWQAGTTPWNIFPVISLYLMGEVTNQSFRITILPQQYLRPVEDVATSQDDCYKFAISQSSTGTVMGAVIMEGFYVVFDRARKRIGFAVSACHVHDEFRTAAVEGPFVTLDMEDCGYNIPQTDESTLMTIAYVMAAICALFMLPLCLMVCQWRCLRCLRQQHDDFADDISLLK

| IC50 [1, 3] [µM] | IC50 [2, 4] [µM] | SMILES | IC50 ([1]; BACE 1 FRET assay (uM)) [µM] | IC50 ([2]; HEK293, read-out: HEK cell assay (uM), average IC50, HEK cell assay) [µM] |
| --- | --- | --- | --- | --- |
| 0.0007 | 0.0024 | CC1(COc2cc(F)c3c(c2)[C@]2(COC(N)=N2)c2cc(-c4cncc(Cl)c4)ccc2O3)COC1 [Example 206, (4S)-7′-(5-chloro-3-pyridinyl)-4′-fluoro-2′-((3-methyl-3-oxetanyl)methoxy)spiro[1,3-oxazole-4,9′-xanthen]-2-amine] |  |  |
| 0.0075 | 0.0314 | COCCN(C)c1cc(F)c2c(c1)[C@]1(COC(N)=N1)c1cc(-c3cccnc3F)ccc1O2 [Example 207, (4S)-4′-fluoro-7′-(2-fluoro-3-pyridinyl)-N~2~′-(2-methoxyethyl)-N~2~′-methylspiro[1,3-oxazole-4,9′-xanthene]-2,2′-diamine] |  |  |
| 0.0008 | 0.0038 | NC1=N[C@@]2(CO1)c1cc(-c3cncc(Cl)c3)ccc1Oc1c(F)cc(N3CCOCC3)cc12 [Example 208, (4S)-7′-(5-chloro-3-pyridinyl)-4′-fluoro-2′-(4-morpholinyl)spiro[1,3-oxazole-4,9′-xanthen]-2-amine] |  |  |
| 0.249 | 0.209 | NC1=N[C@@]2(CO1)c1cc(-c3cncc(N4CCOCC4)c3)ccc1Oc1c(F)cc(N3CCOCC3)cc12 [Example 209, (4S)-4′-fluoro-2′-(4-morpholinyl)-7′-(5-(4-morpholinyl)-3-pyridinyl)spiro[1,3-oxazole-4,9′-xanthen]-2-amine] |  |  |
|  |  | NC1=N[C@@]2(CO1)c1cc(-c3cncc(Cl)c3)ccc1Oc1c(F)cc(C3=CCOCC3)cc12 [Example 210, (4S)-7′-(5-chloro-3-pyridinyl)-2′-(3,6-dihydro-2H-pyran-4-yl)-4′-fluorospiro[1,3-oxazole-4,9′-xanthen]-2-amine] | 0.0003 | 0.003 |
| 0.0006 | 0.0082 | NC1=N[C@@]2(CO1)c1cc(-c3cncc(Cl)c3)ccc1Oc1c(F)cc(OCC3CCOCC3)cc12 [Example 211, (4S)-7′-(5-chloro-3-pyridinyl)-4′-fluoro-2′-(tetrahydro-2H-pyran-4-ylmethoxy)spiro[1,3-oxazole-4,9′-xanthen]-2-amine] |  |  |
| 0.0014 | 0.0113 | NC1=N[C@@]2(CO1)c1cc(-c3cccnc3F)ccc1Oc1c(F)cc(-c3ccncn3)cc12 [Example 212, (4S)-4′-fluoro-7′-(2-fluoro-3-pyridinyl)-2′-(4-pyrimidinyl)spiro[1,3-oxazole-4,9′-xanthen]-2-amine] |  |  |
| 0.0027 | 0.0216 | COc1ncc(-c2cc(F)c3c(c2)[C@]2(COC(N)=N2)c2cc(-c4cccnc4F)ccc2O3)cn1 [Example 213, (4S)-4′-fluoro-7′-(2-fluoro-3-pyridinyl)-2′-(2-methoxy-5-pyrimidinyl)spiro[1,3-oxazole-4,9′-xanthen]-2-amine] |  |  |
| 0.0028 | 0.0187 | NC1=N[C@@]2(CO1)c1cc(-c3cccnc3F)ccc1Oc1c(F)cc(-c3cncnc3)cc12 [Example 214, (4S)-4′-fluoro-7′-(2-fluoro-3-pyridinyl)-2′-(5-pyrimidinyl)spiro[1,3-oxazole-4,9′-xanthen]-2-amine] |  |  |
| 0.0414 | 1.08 | COc1cc(F)c2c(c1)[C@@]1(CSC(N)=N1)c1cc(-c3cnccn3)ccc1O2 [Example 222, (4R)-4′-fluoro-2′-methoxy-7′-(2-pyrazinyl)spiro[1,3-thiazole-4,9′-xanthen]-2-amine] |  |  |
| 0.0014 | 0.0071 | Cc1ccc(-c2cc3c(cn2)Oc2ccc(-c4cncc(Cl)c4)cc2[C@@]32COC(N)=N2)cn1 [Example 227, (5S)-7-(5-chloro-3-pyridinyl)-3-(6-methyl-3-pyridinyl)spiro[chromeno[2,3-c]pyridine-5,4′-[1,3]oxazol]-2′-amine] |  |  |
| 0.0025 | 0.014 | Cc1cc(-c2ccc3c(c2)[C@@]2(COC(N)=N2)c2cc(C4=CCOCC4)ncc2O3)cnc1F [Example 228, (5S)-3-(3,6-dihydro-2H-pyran-4-yl)-7-(6-fluoro-5-methyl-3-pyridinyl)spiro[chromeno[2,3-c]pyridine-5,4′-[1,3]oxazol]-2′-amine] |  |  |
| 0.0128 | 0.0604 | Cc1cc(-c2ccc3c(c2)[C@@]2(COC(N)=N2)c2cc(-c4ccncc4)ncc2O3)cnc1F [Example 229, (5S)-7-(6-fluoro-5-methyl-3-pyridinyl)-3-(4-pyridinyl)spiro[chromeno[2,3-c]pyridine-5,4′-[1,3]oxazol]-2′-amine] |  |  |
| 0.0081 | 0.0363 | Cc1cc(-c2ccc3c(c2)[C@@]2(COC(N)=N2)c2cc(-c4cccnc4)ncc2O3)cnc1F [Example 230, (5S)-7-(6-fluoro-5-methyl-3-pyridinyl)-3-(3-pyridinyl)spiro[chromeno[2,3-c]pyridine-5,4′-[1,3]oxazol]-2′-amine] |  |  |
| 0.034 | 0.106 | NC1=N[C@@]2(CO1)c1cc(-c3cncc(C4=CCOCC4)c3)ccc1Oc1cnc(C3=CCOCC3)cc12 [Example 231, (5S)-3-(3,6-dihydro-2H-pyran-4-yl)-7-(5-(3,6-dihydro-2H-pyran-4-yl)-3-pyridinyl)spiro[chromeno[2,3-c]pyridine-5,4′-[1,3]oxazol]-2′-amine] |  |  |
| 0.0013 | 0.0074 | Cn1cc(-c2cc3c(cn2)Oc2ccc(-c4cncc(Cl)c4)cc2[C@@]32COC(N)=N2)cn1 [Example 232, (5S)-7-(5-chloro-3-pyridinyl)-3-(1-methyl-1H-pyrazol-4-yl)spiro[chromeno[2,3-c]pyridine-5,4′-[1,3]oxazol]-2′-amine] |  |  |
| 0.028 | 0.092 | Cn1cc(-c2cncc(-c3ccc4c(c3)[C@@]3(COC(N)=N3)c3cc(-c5cnn(C)c5)ncc3O4)c2)cn1 [Example 233, (5S)-3-(1-methyl-1H-pyrazol-4-yl)-7-(5-(1-methyl-1H-pyrazol-4-yl)-3-pyridinyl)spiro[chromeno[2,3-c]pyridine-5,4′-[1,3]oxazol]-2′-amine] |  |  |
| 0.49 | 4.28 | NC1=N[C@]2(CO1)c1cc(-c3cccc(Cl)c3)ccc1Oc1cnc(C3=CCOCC3)cc12 [Example 234, (5R)-7-(3-chlorophenyl)-3-(3,6-dihydro-2H-pyran-4-yl)spiro[chromeno[2,3-c]pyridine-5,4′-[1,3]oxazol]-2′-amine] |  |  |
| 0.0012 | 0.0147 | COc1ncc(Cl)cc1-c1ccc2c(c1)[C@@]1(COC(N)=N1)c1cc(C3=CCOCC3)ncc1O2 [Example 235, (5S)-7-(5-chloro-2-methoxy-3-pyridinyl)-3-(3,6-dihydro-2H-pyran-4-yl)spiro[chromeno[2,3-c]pyridine-5,4′-[1,3]oxazol]-2′-amine] |  |  |
| 0.0016 | 0.0224 | Cc1ccnc(F)c1-c1ccc2c(c1)[C@@]1(COC(N)=N1)c1cc(-c3ccnc(F)c3)ncc1O2 [Example 237, (5S)-7-(2-fluoro-4-methyl-3-pyridinyl)-3-(2-fluoro-4-pyridinyl)spiro[chromeno[2,3-c]pyridine-5,4′-[1,3]oxazol]-2′-amine] |  |  |
| 0.0407 | 0.164 | NC1=N[C@@]2(CO1)c1cc(-c3ccccc3)ccc1Oc1cnc(C3CCOCC3)cc12 [Example 238, (5S)-7-phenyl-3-(tetrahydro-2H-pyran-4-yl)spiro[chromeno[2,3-c]pyridine-5,4′-[1,3]oxazol]-2′-amine] |  |  |
| 0.0335 | 0.389 | COc1ncccc1-c1ccc2c(c1)[C@@]1(COC(N)=N1)c1cc(-c3ccnc(F)c3)ncc1O2 [Example 239, (5S)-3-(2-fluoro-4-pyridinyl)-7-(2-methoxy-3-pyridinyl)spiro[chromeno[2,3-c]pyridine-5,4′-[1,3]oxazol]-2′-amine] |  |  |
